Laboratory results as given in patent publication US10159635B2, “Cosmetic and pharmaceutical uses of saccharides” (CURAPEL (SCOTLAND) LIMITED, priority 2012, dated 2018).

Columns and labels:
[1] = system: melanin in ex-vivo human skin; assay: Masson Fontana melanin staining of ex-vivo human skin in organ culture; assay type: cell-based
Method: Samples of full thickness ex-vivo human skin were obtained from elective plastic surgery procedures. […] Two concentrations of the NDO melibiose, 1.5 and 3.0% (w/v) were tested for their ability to reduce skin pigmentation by addition to the medium surrounding the cultured skin samples at day 1 and every time the medium was changed thereafter. As a control some skin samples were cultured under identical conditions apart from the […] of melibiose.
At day 6, the skin samples were immersed in cryo-embedding medium and 5 μm sections cut and stained using the Masson Fontana assay. The principle of the Masson Fontana assay is that melanin granules reduce silver from ammoniacal silver nitrate solution to a visible metallic state. Information on the protocol for the Masson-Fontana Assay may be found in relevant laboratory handbooks, for example Lille RD, 1965, Histopathologic Technique and Practical Histochemistry, 3rd Ed 1965, the Blakiston Division, McGraw Hill Book Company, p 240, which is incorporated herein by reference.
Following the fixation of cryosections of skin with ethanol/acetic acid, slides were heated in 0.5% ammoniacal silver nitrate solution using a microwave. Sections were then toned in 1% gold chloride, fixed in 5% sodium thiosulphate and counterstained with haematoxylin before mounting using DPEX. Melanin stain can then be visualised using light microscopy.
Samples of full thickness ex-vivo human skin were obtained as described in Example 1 and were maintained in organ culture for 6 days. Two concentrations of the NDO melibiose, 25 mM and 50 mM, and two concentration of the NDO P95 (a 95% mixture of oligofructose, also known as fructooligosaccharides (FOS)), 25 mM and 50 mM, were tested for their ability to reduce skin pigmentation by addition to the medium surrounding the cultured skin samples at day 1 and every time the medium was changed thereafter. As a control some skin samples were cultured under identical conditions apart from the absence of NDO. […]

[2] = system: interleukin-8 (IL-8) production by HaCaT keratinocytes; assay: IL-8 ELISA on culture supernatant of keratinocytes; assay type: cell-based
Method: Following an overnight coating of a flat-bottomed 96 well plate with an anti-IL-8 antibody, a 9-point IL-8 standard curve was generated using serial dilutions from a 2000 pg/ml IL-8 stock solution. These were cultured on the 96 well plate for 2 h along side culture supernatants derived from keratinocytes exposed to sugars. The plate was then washed and incubated for 2 h with an anti-IL-8 biotin-antibody before the plate was again washed and left for 20 min with a solution of streptavidin-HRP. After a final wash the plate was coated with a solution of tetramethyl benzidine forming a blue reaction product, the intensity of which relates to amount of IL-8 present in the original culture supernatant. This reaction was stopped using sulphuric acid turning the solution yellow which was then read on a microplate reader at […]. Unknown sample concentrations of IL-8 were determined using the standard curve.

OC[C@H]1O[C@H](OCC2O[C@@H](O)[C@H](O)[C@@H](O)[C@@H]2O)[C@H](O)[C@@H](O)[C@H]1O (some centres unmarked) [melibiose]
reduction in melanin staining (mean density, image analysis) in treated skin vs control ([1]; Example 1, ex-vivo human skin, 6 days culture, 25 mM or 50 mM melibiose, FIG. 2b): approximately 10%
melanin in stained skin sections, treated vs untreated control ([1]; Example 1, full thickness ex-vivo human skin, 6 days organ culture, melibiose 1.5 and 3.0% (w/v) in medium, FIG. 2a): significant reduction in melanin
mean density of melanin staining, treated skin vs control ([1]; Example 2, ex-vivo human skin, 6 days organ culture, 25 mM or 50 mM NDO in medium, FIG. 3): reduction in melanin staining
constitutive (baseline) IL-8 secretion ([2]; HaCaT keratinocytes, unstimulated, FIG. 4a): mildly dose-responsive suppression
IL-8 secretion in response to IL-1β stimulation ([2]; keratinocytes stimulated with IL-1β, 5% melibiose, FIG. 4b): reduced to nearly control levels
